Results as given in patent US20250144216A1, “NEAR-INFRARED PHOTODYNAMIC THERAPY USING SECOND HARMONIC GENERATION NANOPARTICLE AND VISIBLE LIGHT REACTIVE PHOTOSENSITIZER” (ARIEL SCIENTIFIC INNOVATIONS LTD., priority 2022, published 2025).

How the values were obtained:
S. aureus (ATCC 25923) [1] = experiment: microbe, parasite or virus in culture; assay type: cell-based
Protocol: Laser Setup—Laser was generated using Millennia® Pro s Series 5SJSPG (Spectra physics, USA) laser setup to generate a […] continuous wave laser which was passed through an ultra-fast oscillator Femtosource® Scientific 20 (Femtolasers, Inc.) to generate the Near Infrared (800 nm) pulsed wave (pulse frequency 76.9 MHz) beamline. The beamline was appropriately arranged to provide real-time power readings using a beam splitter. Power measurements were recorded using a compact power meter PM100D (Thorlabs, Inc.) with S370C thermal power head (Thorlabs, Inc.)).
S. aureus (ATCC 25923) were grown on Brain Heart agar plates (BHA, Acumedia, Lansing, MI, USA) for 24 hours. Grown cells were transferred into Brain Heart broth (BH, Acumedia, Lansing, MI, USA) and incubated at 37±1° C. with shaking at 170 rpm until reaching the absorbance A=0.10±0.02 at 660 nm, corresponding to a final concentration of 10^8 cells/ml and diluted appropriately to the final concentration of 10^3-10^4 cells/ml with commercially available sterile 0.9% saline solution before the light and dark phototoxicity assays.
200 μl bacterial suspensions in 0.9% sterile saline solution (10^3-10^4 cells/μl) were incubated with 20 μl of PDT nanoparticle conjugates (400 μg/ml) under laser (800 nm, 232-228 mW,76.9 MHz) with shaking for 10 minutes. […] The CFUwere counted using a colony counter Scan 500.

S. aureus (ATCC 25923) [2] = experiment: Dark toxicity, viability of S. aureus (CFU count); assay type: cell-based; conditions: dark conditions; compared to the control
Protocol: S. aureus (ATCC 25923) were grown on Brain Heart agar plates (BHA, Acumedia, Lansing, MI, USA) for 24 hours. […] 200 μl Cell suspensions in 0.9% saline (10^3-10^4 cells/ml) in sterile saline solution were incubated with 20 μl of PDT nanoparticle conjugates (400 μg/ml) in the dark with shaking for 30 minutes. Subsequently, aliquots of each sample (100 μl) were spread over BHA plates with a Drigalsky spreader and incubated at 37° C. for 24 h. The colony forming units (CFU) were counted using a colony counter Scan 500 (Interscience, Saint-Nom-la-Breteche, France).

COc1cc(/C=C/C(=O)CC(=O)/C=C/c2ccc(O)c(OC)c2)ccc1O [Curcumin, curcumin]
viability of S. aureus increased by (S. aureus (ATCC 25923) [1]; 10 minutes pulsed NIR (800 nm) laser exposure): 20.2±1.4% | increase in viability of S. aureus (S. aureus (ATCC 25923) [2]): 14.2±1.1%

C=CC1=C(C)c2cc3[nH]c(cc4nc(cc5[nH]c(cc1n2)c(C)c5CCC(=O)O)C(CCC(=O)O)=C4C)c(C)c3C=C [PPIX, protoporphyrin IX]
inhibition at 400 µg/mL (S. aureus (ATCC 25923) [1]; Staphylococcus aureus, ATCC25923, 10 min, read-out: viability of S. aureus reduced by): 20.4 ± 2.5%
